Measurements taken from patent US6670363B1, “Azole compounds as therapeutic agents for fungal infections” (Ranbaxy Laboratories Limited, priority 2000, dated 2003).
Converted amounts (≈) assume the structure as drawn.

Assays:
A. fumigatus s 1008 = test: In vitro MIC, NCCLS M38P broth method (RPMI 1640/MOPS pH7), Aspergillus fumigatus; format: cell-based; conditions: A. fumigatus strain 1008
Candida = test: In vitro MIC, NCCLS M27A, Candida species; format: cell-based; design: MIC, Candida albicans 1.549 / MIC, Candida albicans Y-01-19 / MIC, C. krusei 766-1 / MIC, C. krusei Q. C / MIC, Candida tropicalis ATCC / MIC, C. glabrata 90030: unit not given beside the values; MIC, Candida albicans A 26 / MIC, C. parapsilosis Q. C.: unit not given here; conditions: for MIC, C. glabrata 90030: C. glabrata strain 90030; for MIC, C. krusei 766-1: C. krusei strain 766-1; for MIC, C. krusei Q. C: C. krusei strain Q. C; for MIC, C. parapsilosis Q. C.: C. parapsilosis strain Q. C.; for MIC, Candida albicans 1.549: Candida albicans strain 1.549; for MIC, Candida albicans A 26: Candida albicans strain A 26; for MIC, Candida albicans Y-01-19: Candida albicans strain Y-01-19
Cryptococcus neoformans = test: In vitro MIC, NCCLS M27A, Cryptococcus neoformans; format: cell-based; design: MIC, C. neoformans I: unit not given beside the values; MIC, C. neoformans M 106: unit not given here; conditions: for MIC, C. neoformans I: C. neoformans strain I; for MIC, C. neoformans M 106: C. neoformans strain M 106
Histoplasma capsulatum = format: cell-based

Compound | MIC, A. fumigatus 1008 (A. fumigatus s 1008) | MIC, C. glabrata 90030 (Candida) | MIC, C. krusei 766-1 (Candida) | MIC, C. krusei Q. C (Candida) | MIC, C. parapsilosis Q. C. (Candida) | MIC, Candida albicans 1.549 (Candida) | MIC, Candida albicans A 26 (Candida) | MIC, Candida albicans Y-01-19 (Candida) | MIC, Candida tropicalis ATCC (Candida) | MIC, C. neoformans I (Cryptococcus neoformans) | MIC, C. neoformans M 106 (Cryptococcus neoformans) | MIC, H. capsulatum (Histoplasma capsulatum) | melting point
Cc1ccc(N2CCN(c3ccc(-n4cnn(CC(O)(Cn5cncn5)c5ccc(F)cc5F)c4=O)cc3)CC2)cc1 (stereo not shown) [Compound 39, 2-[2-(2,4-Difluorophenyl)-2-hydroxy-3-(1H-1,2,4-triazol-1-yl)propyl]-4-{4-[4-(4-methylphenyl)-1-piperazinyl]phenyl}-3-(2H,4H)-1,2,4-triazolone] | 6.25 | 0.10 | 0.80 | 0.10 | <0.02 | 0.10 | <0.02 | 0.02 | 6.25 | <0.02 | 0.05 | 0.05 µg/mL (≈ 0.0873 µM) | 146 to 148 °C
Cc1ccc(N2CCN(c3ccc(-n4cnn(CC(O)(Cn5cncn5)c5ccc(F)cc5F)c4=O)cc3)CC2)c(C)c1 (stereo not shown) [Compound 54, 2-[2-(2,4-Difluorophenyl)-2-hydroxy-3-(1H-1,2,4-triazol-1-yl)propyl]-4-{4-[4-(2,4-dimethylphenyl)-1-piperazinyl]phenyl}-3-(2H,4H)-1,2,4-triazolone] | 2.00 | 1.00 | 0.50 | 0.12 | <0.03 | 8.00 | <0.03 | 0.12 | <0.03 | <0.03 | <0.03 | 0.06 µg/mL (≈ 0.102 µM) | 76 to 77 °C
O=c1n(-c2ccc(N3CCN(c4ccc(O)cc4)CC3)cc2)cnn1CC(O)(Cn1cncn1)c1ccc(F)cc1F (stereo not shown) [Compound 44, 2-[2-(2,4-Difluorophenyl)-2-hydroxy-3-(1H-1,2,4-triazol-1-yl)propyl]-4-{4-[4-(4-hydroxyphenyl)-1-piperazinyl]phenyl}-3-(2H,4H)-1,2,4-triazolone] | >12.5 | 6.25 | >12.5 | 6.25 | 0.20 | >12.5 | >12.5 | 1.56 | 6.25 | 1.56 | 3.12 | 1.56 µg/mL (≈ 2.71 µM) | 246 to 248 °C
O=c1n(-c2ccc(N3CCN(c4cccc(C(F)(F)F)c4)CC3)cc2)cnn1CC(O)(Cn1cncn1)c1ccc(F)cc1F (stereo not shown) [Compound 51, 2-[2-(2,4-Difluorophenyl)-2-hydroxy-3-(1H-1,2,4-triazol-1-yl)propyl]-4-{4-[4-(3-trifluoromethylphenyl)-1-piperazinyl]phenyl}-3-(2H,4H)-1,2,4-triazolone] | >16 | 1.00 | 1.00 | 0.25 | 0.06 | 0.25 | <0.03 | 0.25 | <0.03 | <0.03 | <0.03 | < 0.03 µg/mL | 166 to 168 °C
